This note sets out measurements from patent US20090084166A1, “Sensors comprising a chelated metal ion linker layer” (priority 2007, published 2009).

A short description of experiment [1]: Non-specific binding test of CAII on the sensor surface without EDC/NHS activation. To be noted: CAII flowed over surface 101 without prior activation with EDC/NHS. An excerpt: Present on the activated dielectric surface 110 is a chelated metal ion linking layer 104. […] (RU stands for resonance unit and is directly proportional to the concentration of biomolecules on a surface. 1 RU is ca. 1 pg/mm^2.)
To test for non-specific binding, a ligand (CAII) was flowed over surface 101 through chamber 136 in the same manner as above but without any prior activation with EDC/NHS.

Experiment [2] concerns the target carbonic anhydrase II (CAII) (Homo sapiens, UniProt P00918). The experiment can be described thus: SPR biomolecular interaction assay of CBS with immobilized CAII. The class given is binding. To be noted: CBS 40 μM to 80 nM in phosphate-buffered saline, run over CAII surface. An excerpt:
During use, light source 142 directs a light beam 150 toward prism 120 by way of suitable optics. Light beam 150 passes into and through light-transmissive support 105 and reflects off metal layer 107. Reflected light 152 is received by optical detector 144. Optical detector 144 passes a corresponding signal to the detection circuitry 146. The ligand 102 is contacted with sample and may bind to analytes in the sample. Binding of analyte and ligand 102 causes a change in a property of the reflected light 152 that can be detected by optical detection system 130. Upon detection of the change in a property of the reflected light 152, the detection system may produce a sample-responsive signal. The resultant sample responsive signal may then be employed to assess the presence of analyte in the sample. In certain embodiments, the sample-responsive signal is in the form of a “sensorgram.” A sensorgram is a plot of response (measured in “resonance units” or “RU”) as a function of time. An increase of RU corresponds to an increase of mass on the sensor surface. […]
The ligand, (CAII) is immobilized on the surface layer as stated above in “ligand attachment”. […] Binding curves are produced of the analyte interaction with the enzyme and binding rates are calculated.

carbonic anhydrase II [CAII]: in experiment [1], the non-specific binding entry is “ca. 10 RU”. Take carboxybenzenesulfonamide [CBS]: the “Response units (binding to immobilized CAII)” value in experiment [2] is “proportional to the concentration of the analyte and are cleanly seen above the baseline”.
